# Source: patent US20070167512A1, “Lipid metabolism improving agent” (Kyowa Hakko Kogyo Co., Ltd., priority 2003, published 2007)
# What was measured:
# [1] = tested on: KK-Ay/Ta Jcl mice (animal models for hypertriglyceridemia and hyper-free fatty acidemia); test: Serum triglyceride concentration in KK-Ay/Ta Jcl mice fed compound-supplemented CE-2 feed (Triglyceride G-Test Wako); type: in vivo; details: for Triglyceride (serum concentration): KK-Ay/Ta Jcl male mice, 1% by weight in CE-2 feed ad libitum, serum after 18 h fast, 10th-11th day, mean ± standard error (n=5), Group 1 (CE-2 only) 282.4 ± 30.3; for Action for improving hypertriglyceridemia (conclusion) / Serum triglyceride concentration as compared with Group 1 (in words): KK-Ay/Ta Jcl mice, 1% by weight in feed; for Serum triglyceride concentration as compared with Group 1 (in words): t-test, p < 0.01 where significant
# Excerpt: (§1) KK-Ay/Ta Jcl mice (CLEA JAPAN; males; six weeks age) (25 mice) which are animal models for appearing hypertriglyceridemia and hyper-free fatty acidemia were divided into five groups each comprising five mice and named group 1 to group 5.
# (§2) The mice of group 1 to group 5 were made free to take feed and water. A commercially available feed CE-2 (manufactured by CLEA JAPAN) was ingested to the mice of group 1. CE-2 to which 1% by weight of trans-4-hydroxy-L-proline (manufactured by Kyowa Hakko Kogyo; hereinafter, abbreviated as hydroxyproline) was added was ingested to the mice of group 2. CE-2 to which 1% by weight of trans-N-acetyl-4-hydroxy-L-proline (manufactured by Kyowa Hakko Kogyo; hereinafter, abbreviated as N-acetylhydroxyproline) was added was ingested to the mice of group 3. CE-2 to which 1% by weight of trans-4-hydroxy-L-proline ethyl ester (manufactured by Sanyo Kagaku Kenkyusho; hereinafter, abbreviated as hydroxyproline ethyl ester) was added was ingested to the mice of group 4. CE-2 to which 1% by weight of trans-N,O-diacetyl-4-hydroxy-L-proline oleyl ester (manufactured by Nissei Kagaku; hereinafter, abbreviated as diacetylhydroxyproline oleyl ester) was added was ingested to the mice of group 5.
# (§3) The mice were fasted for 18 hours during the 10th day to the 11th day after the start of the test and whole blood was collected from descending vena carva to prepare serum. Concentration of triglyceride in the serum was measured by a Triglyceride G-Test Wako (manufactured by Wako Pure Chemical) and concentration of free fatty acids therein was measured by an NEFA C-Test Wak (manufactured by Wako Pure Chemical). The value was shown by mean value ± standard error (n=5) and statistic ratio of risk (p value) was determined by a t-test. With regard to the ingested amounts during the test period, there was no significant difference among the groups 1 to 5.
# [2] = tested on: KK-Ay/Ta Jcl mice (animal models for hypertriglyceridemia and hyper-free fatty acidemia); test: Serum free fatty acid concentration in KK-Ay/Ta Jcl mice fed compound-supplemented CE-2 feed (NEFA C-Test); type: in vivo; details: for Free Fatty Acid (serum concentration): KK-Ay/Ta Jcl male mice, 1% by weight in CE-2 feed ad libitum, serum after 18 h fast, 10th-11th day, mean ± standard error (n=5), Group 1 (CE-2 only) 1.12 ± 0.05; for Action for improving hyper-free fatty acidemia (conclusion) / Free fatty acid concentration in serum as compared with Group 1 (in words): KK-Ay/Ta Jcl mice, 1% by weight in feed; for Free fatty acid concentration in serum as compared with Group 1 (in words): t-test, p < 0.005 where significant
# Excerpt: as §1, §2, §3
Compound,Triglyceride (serum concentration) [1] [mg/dL],Action for improving hypertriglyceridemia (conclusion) [1],Serum triglyceride concentration as compared with Group 1 (in words) [1],Free Fatty Acid (serum concentration) [2] [mEq/l],Action for improving hyper-free fatty acidemia (conclusion) [2],Free fatty acid concentration in serum as compared with Group 1 (in words) [2]
"O=C(O)[C@@H]1C[C@@H](O)CN1 [hydroxyproline, trans-4-hydroxy-L-proline]",224.3 ± 23.1,action for improving hypertriglyceridemia,tended to show low values,0.84 ± 0.05,action for improving hyper-free fatty acidemia,significantly low
"CCOC(=O)[C@@H]1C[C@@H](O)CN1 [hydroxyproline ethyl ester, trans-4-hydroxy-L-proline ethyl ester]",168.7 ± 13.4,action for improving hypertriglyceridemia,significantly low,0.68 ± 0.02,action for improving hyper-free fatty acidemia,significantly low
"CC(=O)N1C[C@H](O)C[C@H]1C(=O)O [N-acetylhydroxyproline, trans-N-acetyl-4-hydroxy-L-proline]",156.4 ± 23.3,action for improving hypertriglyceridemia,significantly low,0.77 ± 0.06,action for improving hyper-free fatty acidemia,significantly low
"CCCCCCCC/C=C\CCCCCCCCOC(=O)[C@@H]1C[C@@H](OC(C)=O)CN1C(C)=O (relative stereo) [diacetylhydroxyproline oleyl ester, trans-N,O-diacetyl-4-hydroxy-L-proline oleyl ester]",217.6 ± 18.3,action for improving hypertriglyceridemia,tended to show low values,1.00 ± 0.07,action for improving hyper-free fatty acidemia,tended to show low values
